Results published in patent US20250205361A1, “TREATMENT […] FOR T[…] […] ACT VIA AN INT[…] TARGET” (priority 2023, published 2025).

Columns and labels:
Ttr RNA = Ttr RNA quantification (qRT-PCR) in murine primary hepatocytes, depot release; assay type: cell-based, mouse; details: 0.05 nM GN3-siTTR 6 hrs loading, wash, saponin component 48 hrs
Experimental: Wells of a 24- or 96-well plate (Greiner BioOne) were coated overnight at 37° C. with rat collagen-I (Ibidi). Next day the coating solution was removed and the wells were washed 1× with PBS (PAN-Biotech GmbH). Hepatocyte Plating Medium (HPM, […] Cell Culture Technology GmbH) was added using 210 μl or 35 μl per well, per 24-wp or 96-wp respectively. Next, GN3-siTTR/DPBS was dissolved at 10× the final concentration (final concentration is 0.5 nM or 0.05 nM GN3-siTTR, as indicated) and 90 μl or 15 μl was added to each well, per 24-wp or 96-wp respectively. Cryopreserved primary mouse hepatocytes (Cytes Biotechnology) were thawed in Hepatocyte Thawing Medium (HTM, […] Cell Culture Technology GmbH) and collected by centrifugation at 50×g for 10 min. […]
RNA from cells was isolated using TRIzol™ Reagent (Thermo Scientific) according to the manufacturer's instruction. […] Ttr expression levels and levels of specific hepatocyte housekeeping genes were determined using quantitative real-time PCR assays (qRT-PCR) using iTaq™ Universal SYBR® Green Supermix (BioRad) and the Light Cycler 480 II (Roche Diagnostics) with specific DNA primers, listed in Table A2. […]
The timed, saponin-component-inducible release of a nucleic acid from endosomes after prior loading cells with the nucleic acid was also assessed in vitro in murine primary hepatocytes (MPH) in different dosing regimens. […]

A431 cells [1] = test: Cell viability (MTS) of A431 cells with aCD71-SPRN and saponin components; assay type: cell-based, human; details: for potency of aCD71-SPRN versus co-administration / efficacy enhancement of aCD71-SPRN: 5 pM aCD71-SPRN 24 hr loading, wash; for efficacy enhancement of aCD71-SPRN: 24 hrs resting; for relative cell viability, efficacy of aCD71-SPRN: 5 pM aCD71-SPRN + concentration range of saponin component, 48 hr co-administration
Experimental: Cells were cultured in DMEM (PAN-Biotech GmbH) supplemented with 10% fetal bovine serum (FBS) (PAN-Biotech GmbH) and Pen/Strep (PAN-Biotech GmbH) at 37° C. and 5% CO2. Cells were seeded in a 96-well plate at 5.000-6.000 cells/well in 100 μL/well and incubated overnight at 37° C. […] The medium was removed from the cell culture plate and replaced by 180 μL fresh culture medium, followed by the addition of 20 μL 10× compound-mix/well. PBS treatment served as vehicle control. After 24 hrs treatment, the cells were washed and incubated with medium or medium containing PBS/saponin components for the time indicated in FIG. 6B, 6C, 6D at 37° C. At the end of the experiment at 48 hr after saponin component treatment or PBS treatment the cells were harvested for cell viability analysis. Alternatively, as a positive control, the cells were treated with a co-administration of protein toxin and saponin component (or PBS) mix for 48 hrs without medium change, FIG. 6A.
After treatment cell viability was determined by an MTS-assay, performed according to the manufacturer's instruction (CellTiter 96@AQueous One Solution Cell Proliferation Assay, Promega). Briefly, the MTS solution was diluted 20′ in DMEM without phenol red (PAN-Biotech GmbH) supplemented with 10% FBS. The cells were washed once with 200 μL/PBS well, after which 100 μL diluted MTS solution was added/well. The plate was incubated for approximately 20-30 minutes at 37° C. Subsequently, the OD at 492 nm was measured on a Spectramax iD5 plate reader (Molecular Devices). For quantification the background signal of ‘medium only’ wells was subtracted from all other wells, before the cell viability percentage of treated/untreated cells was calculated, by dividing the background corrected signal of treated wells over the background corrected signal of the untreated wells (×100).
One disadvantage of these types of immunotoxins for clinical use is their relatively narrow therapeutic window and associated potentially life-threatening toxicities at dose levels that are therapeutic. Here, the in vitro efficacy and enhancement of effect durability of an immunotoxin (anti-CD71-saporin, also referred to as aCD71-SPRN, protein toxin) by endosome escape enhancer saponin components was assessed in epidermoid carcinoma cells and metastatic melanoma cells. A concentration range of a saponin component was added either together with a fixed concentration of 5 pM aCD71-SPRN to the cancer cells, or at various time points after the loading of the cancer cells with a fixed concentration of 5 pM aCD71-SPRN (according to dosing schemes in FIG. 6A, 6B, 6C, 6D). As a negative control, cells were loaded with protein toxin according to scheme FIG. 6A-D but received medium with PBS instead of saponin component.

A431 cells [2] = test: Imaging of Cy5 fluorescence release from Cet-Cy5 loaded A431 cells; assay type: cell-based, human; details: A431 loaded with 2 nM Cet-Cy5 48 hrs, wash, 24 hrs resting, saponin component added at 72 hrs
Experimental: Cells were cultured in DMEM (PAN-Biotech GmbH) supplemented with 10% fetal bovine serum (FBS) (PAN-Biotech GmbH) and Pen/Strep (PAN-Biotech GmbH) at 37° C. and 5% CO2.

[3] = 6 hrs resting, saponin component 48 hrs
[4] = saponin component added directly, 48 hrs

SMILES | remaining Ttr levels (Ttr RNA) | potency of aCD71-SPRN versus co-administration (A431 cells [1]; [3]) | efficacy enhancement of aCD71-SPRN (A431 cells [1]; saponin component 48 hrs) | potency of aCD71-SPRN versus co-administration (A431 cells [1]; [4]) | relative cell viability, efficacy of aCD71-SPRN (A431 cells [1]) | Cy5 fluorescence state at end of experiment at 160 hrs (A431 cells [2])
CC(=O)OC1C(C)OC(OC2C(C)OC(OC(=O)[C@]34CCC(C)(C)CC3C3=CCC5[C@@]6(C)CC[C@H](OC7OC(C(=O)O)C(O)C(OC8OCC(O)C(O)C8O)C7OC7OC(CO)C(O)C(O)C7O)[C@@](C)(/C=N/NC(=O)CCCCCN7C(=O)CC(SCCO)C7=O)C6CC[C@@]5(C)[C@]3(C)C[C@H]4O)C(OC3OC(C)C(OC4OCC(O)C(OC5OC(CO)C(O)C(O)C5O)C4O)C(O)C3O)C2O)C(O)C1OC1OCC(O)C(O)C1O (some centres unmarked) [SO1861-AH-Maleimide-Block] | 3% | very comparable to the co-administration | still apparent | comparable high potency | reduces cell viability | 
CC(=O)O[C@H]1[C@H](O[C@@H]2OC[C@@H](O)[C@H](O)[C@H]2O)[C@@H](O)[C@H](O[C@@H]2[C@H](O)[C@@H](O[C@@H]3O[C@@H](C)[C@H](O[C@@H]4OC[C@@H](O)[C@H](O[C@@H]5O[C@H](CO)[C@@H](O)[C@H](O)[C@H]5O)[C@H]4O)[C@@H](O)[C@H]3O)[C@H](OC(=O)[C@]34CCC(C)(C)C[C@H]3C3=CC[C@@H]5[C@@]6(C)CC[C@H](O[C@@H]7O[C@H](C(=O)O)[C@@H](O)[C@H](O[C@@H]8OC[C@@H](O)[C@H](O)[C@H]8O)[C@H]7O[C@@H]7O[C@H](CO)[C@H](O)[C@H](O)[C@H]7O)[C@@](C)(C=O)[C@@H]6CC[C@@]5(C)[C@]3(C)C[C@H]4O)O[C@@H]2C)O[C@@H]1C [SO1861] | 10% | very comparable to the co-administration | still apparent | comparable high potency | reduces cell viability | zero fluorescent state
